Data: patent publication US12077503B2, “Substituted cyclic amides and their use as herbicides” (FMC CORPORATION, priority 2015, dated 2024)

What was measured:
Format in all cases: in vivo
[1] = tested on: giant foxtail (Setaria faberii); experiment: Test A preemergence; conditions: for Foxtail, Giant plant response rating: 0 to 100 scale where 0 is no effect and 100 is complete control; for Plant response rating, Foxtail, Giant: 125 g ai/ha, 0 to 100 scale (0 no effect, 100 complete control)
Description: (§1) Seeds of plant species selected from barnyardgrass (Echinochloa crus-galli), Kochia (Kochia scoparia), ragweed (common ragweed, Ambrosia elatior), ryegrass, Italian (Italian ryegrass, Lolium multiflorum), crabgrass, large (Digitaria sanguinalis), giant foxtail (Setaria faberii), green foxtail (Setaria viridis), morningglory (Ipomoea spp.), pigweed (Amaranthus retroflexus), velvetleaf (Abutilon theophrasti), wheat (Triticum aestivum), and corn (Zea mays) were planted into a blend of loam soil and sand and treated preemergence with a directed soil spray using test chemicals formulated in anon-phytotoxic solvent mixture which included a surfactant.
(§2) At the same time, plants selected from these crop and weed species and also blackgrass (Alopecurus myosuroides), and Galium (catchweed bedstraw, Galium aparine) were planted in pots containing the same blend of loam soil and sand and treated with postemergence applications of test chemicals formulated in the same manner. Plants ranged in height from 2 to 10 cm and were in the one- to two-leaf stage for the postemergence treatment. Treated plants and untreated controls were maintained in a greenhouse for approximately 10 d, after which time all treated plants were compared to untreated controls and visually evaluated for injury. Plant response ratings, summarized in Table A, are based on a 0 to 100 scale where 0 is no effect and 100 is complete control. A dash (-) response means no test result.

[2] = tested on: barnyardgrass (Echinochloa crus-galli); experiment: Test A preemergence; conditions: for Barnyardgrass plant response rating: 0 to 100 scale where 0 is no effect and 100 is complete control; for Plant response rating, Barnyardgrass: 125 g ai/ha, 0 to 100 scale (0 no effect, 100 complete control)
Description: as §1, §2

[3] = tested on: pigweed (Amaranthus retroflexus); experiment: Test A preemergence; conditions: for Pigweed plant response rating: 0 to 100 scale where 0 is no effect and 100 is complete control; for Plant response rating, Pigweed: 125 g ai/ha, 0 to 100 scale (0 no effect, 100 complete control)
Description: as §1, §2

[4] = tested on: ragweed (common ragweed, Ambrosia elatior); experiment: Test A preemergence; conditions: for Ragweed plant response rating: 0 to 100 scale where 0 is no effect and 100 is complete control; for Plant response rating, Ragweed: 125 g ai/ha, 0 to 100 scale (0 no effect, 100 complete control)
Description: as §1, §2

[5] = tested on: ryegrass, Italian (Italian ryegrass, Lolium multiflorum); experiment: Test A preemergence; conditions: Preemergence; for Plant response rating, Ryegrass, Italian: 125 g ai/ha, 0 to 100 scale (0 no effect, 100 complete control)
Description: as §1, §2

Kochia (Kochia scoparia) [6] = experiment: Test A preemergence; conditions: for Kochia plant response rating: 0 to 100 scale where 0 is no effect and 100 is complete control; for Plant response rating, Kochia: 125 g ai/ha, 0 to 100 scale (0 no effect, 100 complete control)
Description: as §1, §2

[7] = tested on: wheat (Triticum aestivum); experiment: Test A postemergence; conditions: Postemergence
Description: as §1, §2

[8] = tested on: giant foxtail (Setaria faberii); experiment: Test A postemergence; conditions: Postemergence
Description: as §1, §2

[9] = tested on: blackgrass (Alopecurus myosuroides); experiment: Test A postemergence; conditions: Postemergence
Description: as §1, §2

[10] = tested on: pigweed (Amaranthus retroflexus); experiment: Test A postemergence; conditions: Postemergence
Description: as §1, §2

[11] = tested on: ragweed (common ragweed, Ambrosia elatior); experiment: Test A postemergence; conditions: Postemergence
Description: as §1, §2

[12] = tested on: ryegrass, Italian (Italian ryegrass, Lolium multiflorum); experiment: Test A postemergence; conditions: Postemergence
Description: as §1, §2

Kochia (Kochia scoparia) [13] = experiment: Test A postemergence; conditions: Postemergence
Description: as §1, §2

[14] = tested on: Galium (catchweed bedstraw, Galium aparine); experiment: Test A postemergence; conditions: Postemergence
Description: as §1, §2

corn (Zea mays) = experiment: Test A postemergence; conditions: Postemergence
Description: as §1, §2

[15] = tested on: barnyardgrass (Echinochloa crus-galli); experiment: Test B flooded paddy test; conditions: 250 g ai/ha, Flood
Protocol: (§3) Plant species in the flooded paddy test selected from rice (Oryra sativa), sedge, umbrella (small-flower umbrella sedge, Cyperus difformis), ducksalad (Heteranthera limosa), and barnyardgrass (Echinochloa crus-galli) were grown to the 2-leaf stage for testing. At time of treatment, test pots were flooded to 3 cm above the soil surface, treated by application of test compounds directly to the paddy water, and then maintained at that water depth for the duration of the test. Treated plants and controls were maintained in a greenhouse for 13 to 15 d, after which time all species were compared to controls and visually evaluated. Plant response ratings, summarized in Table B, are based on a scale of 0 to 100 where 0 is no effect and 100 is complete control. A dash (-) response means no test result.

rice (Oryra sativa) = experiment: Test B flooded paddy test; conditions: 250 g ai/ha, Flood
Protocol: as §3

[16] = tested on: ducksalad (Heteranthera limosa); experiment: Test B flooded paddy test; conditions: 250 g ai/ha, Flood
Protocol: as §3

[17] = tested on: sedge, umbrella (small-flower umbrella sedge, Cyperus difformis); experiment: Test B flooded paddy test; conditions: Flood, 250 g ai/ha; visually evaluated after 13 to 15 d
Protocol: as §3

[18] = tested on: barnyardgrass (Echinochloa crus-galli); experiment: Test A postemergence; conditions: Postemergence
Description: as §1, §2

[19] = 125 g ai/ha, visual rating about 10 d after treatment
[20] = 500 g ai/ha, visual injury, 0 to 100 scale (0 no effect, 100 complete control), approx. 10 d
[21] = 0 to 100 scale where 0 is no effect and 100 is complete control
[22] = 31 g ai/ha, 0 is no effect, 100 is complete control
[23] = visually evaluated after 13 to 15 d

**Q.** Cc1cc([C@H]2CN(C)C(=O)[C@@H]2C(=O)Nc2ccccc2[S+](C)[O-])ccc1F (stereo partly shown) [Compound 1314] was tested. Which “Foxtail, Giant plant response rating” value ([1]; 500 g ai/ha, preemergence) did it give?
**A.** 100

**Q.** What about the “Plant response rating, Foxtail, Giant” value ([1]; Preemergence) of the same compound?
**A.** 90

**Q.** And the “Barnyardgrass plant response rating” value ([2]; 500 g ai/ha, preemergence)?
**A.** 100

**Q.** And the “Plant response rating, Barnyardgrass” value ([2]; Preemergence)?
**A.** 100

**Q.** And the “Pigweed plant response rating” value ([3]; 500 g ai/ha, preemergence)?
**A.** 70

**Q.** And the “Plant response rating, Pigweed” value ([3]; Preemergence)?
**A.** 0

**Q.** And the “Ragweed plant response rating” value ([4]; 500 g ai/ha, preemergence)?
**A.** 100

**Q.** What about the “Plant response rating, Ragweed” value ([4]; Preemergence) of the same compound?
**A.** 80

**Q.** And the “Plant response rating, Ryegrass, Italian” value [5]?
**A.** 20

**Q.** What about the “Kochia plant response rating” value (Kochia (Kochia scoparia) [6]; 500 g ai/ha, preemergence) of the same compound?
**A.** 80

**Q.** What about the “Plant response rating, Kochia” value (Kochia (Kochia scoparia) [6]; Preemergence) of the same compound?
**A.** 80

**Q.** What about the “Wheat plant response rating (0 to 100 scale)” value (from here on “Wheat plant response rating”) [7, 19] of the same compound?
**A.** 20

**Q.** What about the “Plant response rating, Wheat” value [7, 20] of the same compound?
**A.** 60

**Q.** And the “Foxtail, Giant plant response rating (0 to 100 scale)” value (from here on “Foxtail … (0 to 100 scale)”) [8, 19]?
**A.** 90

**Q.** What about the “Plant response rating, Foxtail, Giant” value [8, 20] of the same compound?
**A.** 90

**Q.** And the “Blackgrass plant response rating (0 to 100 scale)” value (“Blackgrass plant response rating” for short) [9, 19]?
**A.** 0

**Q.** What about the “Plant response rating, Blackgrass” value [9, 20] of the same compound?
**A.** 60

**Q.** What about the “Pigweed plant response rating (0 to 100 scale)” value [10, 19] of the same compound?
**A.** 0

**Q.** What about the “Plant response rating, Pigweed” value [10, 20] of the same compound?
**A.** 30

**Q.** And the “Ragweed plant response rating (0 to 100 scale)” value [11, 19]?
**A.** 0

**Q.** What about the “Plant response rating, Ragweed” value [11, 20] of the same compound?
**A.** 50

**Q.** And the “Ryegrass, Italian plant response rating (0 to 100 scale)” value (shortened to “Ryegrass … (0 to 100 scale)”) [12, 19]?
**A.** 0

**Q.** And the “Plant response rating, Ryegrass, Italian” value [12, 20]?
**A.** 0

**Q.** And the “Kochia plant response rating (0 to 100 scale)” value (Kochia (Kochia scoparia) [13]; [19])?
**A.** 50

**Q.** What about the “Plant response rating, Kochia” value (Kochia (Kochia scoparia) [13]; [20]) of the same compound?
**A.** 60

**Q.** What about the “Galium plant response rating (0 to 100 scale)” value [14, 19] of the same compound?
**A.** 30

**Q.** What about the “Plant response rating, Galium” value [14, 20] of the same compound?
**A.** 50

**Q.** What about the “Corn plant response rating (0 to 100 scale)” value (shortened to “Corn plant response rating”) (corn (Zea mays); [19]) of the same compound?
**A.** 30

**Q.** And the “Plant response rating, Corn” value (corn (Zea mays); [20])?
**A.** 70

**Q.** And the “Barnyardgrass plant response rating” value [15, 21]?
**A.** 65

**Q.** And the “Rice plant response rating” value (rice (Oryra sativa); [21])?
**A.** 0

**Q.** And the “Ducksalad plant response rating” value [16, 21]?
**A.** 100

**Q.** And the “Plant response rating, Sedge, Umbrella (0 to 100 scale where 0 is no effect and 100 is complete control)” value [17]?
**A.** 0

**Q.** Which “Foxtail, Giant plant response rating” value ([1]; 31 g ai/ha, Preemergence) does the source give for CN1C[C@H](c2ccc3c(c2)OC(F)(F)O3)[C@@H](C(=O)Nc2cccc([N+](=O)[O-])c2)C1=O [Compound 1353] here?
**A.** 80

**Q.** And the “Plant response rating, Foxtail, Giant” value ([1]; Preemergence)?
**A.** 100

**Q.** What about the “Barnyardgrass plant response rating” value ([2]; 31 g ai/ha, Preemergence) of the same compound?
**A.** 0

**Q.** What about the “Plant response rating, Barnyardgrass” value ([2]; Preemergence) of the same compound?
**A.** 70

**Q.** What about the “Pigweed plant response rating” value ([3]; 31 g ai/ha, Preemergence) of the same compound?
**A.** 0

**Q.** And the “Plant response rating, Pigweed” value ([3]; Preemergence)?
**A.** 30

**Q.** What about the “Ragweed plant response rating” value ([4]; 31 g ai/ha, Preemergence) of the same compound?
**A.** 40

**Q.** What about the “Plant response rating, Ragweed” value ([4]; Preemergence) of the same compound?
**A.** 0

**Q.** What about the “Ryegrass, Italian plant response rating” value ([5]; 31 g ai/ha, 0 to 100 scale where 0 is no effect and 100 is complete control) of the same compound?
**A.** 10

**Q.** And the “Plant response rating, Ryegrass, Italian” value [5]?
**A.** 20

**Q.** What about the “Kochia plant response rating” value (Kochia (Kochia scoparia) [6]; 31 g ai/ha, Preemergence) of the same compound?
**A.** 60

**Q.** What about the “Plant response rating, Kochia” value (Kochia (Kochia scoparia) [6]; Preemergence) of the same compound?
**A.** 80

**Q.** And the “Wheat plant response rating” value [7, 19]?
**A.** 0

**Q.** And the “Wheat plant response rating” value [7, 22]?
**A.** 0

**Q.** And the “Foxtail … (0 to 100 scale)” value [8, 19]?
**A.** 70

**Q.** And the “Foxtail … (0 to 100 scale)” value [8, 22]?
**A.** 30

**Q.** And the “Barnyardgrass plant response rating (0 to 100 scale, 0 no effect, 100 complete control)” value [18, 19]?
**A.** 90

**Q.** And the “Barnyardgrass plant response rating (0 to 100 scale)” value [18, 22]?
**A.** 40

**Q.** What about the “Blackgrass plant response rating” value [9, 19] of the same compound?
**A.** 20

**Q.** What about the “Blackgrass plant response rating” value [9, 22] of the same compound?
**A.** 0

**Q.** And the “Pigweed plant response rating (0 to 100 scale)” value [10, 19]?
**A.** 20

**Q.** What about the “Pigweed plant response rating (0 to 100 scale)” value [10, 22] of the same compound?
**A.** 0

**Q.** And the “Ragweed plant response rating (0 to 100 scale)” value [11, 19]?
**A.** 0

**Q.** And the “Ragweed plant response rating (0 to 100 scale)” value [11, 22]?
**A.** 0

**Q.** And the “Ryegrass … (0 to 100 scale)” value [12, 19]?
**A.** 0

**Q.** And the “Ryegrass … (0 to 100 scale)” value [12, 22]?
**A.** 0

**Q.** What about the “Kochia plant response rating (0 to 100 scale)” value (Kochia (Kochia scoparia) [13]; [19]) of the same compound?
**A.** 20

**Q.** What about the “Kochia plant response rating (0 to 100 scale)” value (Kochia (Kochia scoparia) [13]; [22]) of the same compound?
**A.** 0

**Q.** And the “Corn plant response rating” value (corn (Zea mays); [19])?
**A.** 0

**Q.** And the “Corn plant response rating” value (corn (Zea mays); [22])?
**A.** 0

**Q.** And the “Plant response rating, Barnyardgrass (0 to 100 scale where 0 is no effect and 100 is complete control)” value [15, 23]?
**A.** 60

**Q.** And the “Plant response rating, Rice (0 to 100 scale where 0 is no effect and 100 is complete control)” value (rice (Oryra sativa); [23])?
**A.** 0

**Q.** And the “Plant response rating, Ducksalad (0 to 100 scale where 0 is no effect and 100 is complete control)” value [16, 23]?
**A.** 40

**Q.** And the “Plant response rating, Sedge, Umbrella (0 to 100 scale where 0 is no effect and 100 is complete control)” value [17]?
**A.** 0
